Active and inactive are the calls of the source.

A short description of assay [1]: growth inhibition of yeast DHODH-expressing 3D7 parasites – SYBR Green, dry powder samples, dose response (AID 1159570).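 Further: parasite growth measured after 72 hours of compound exposure.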 In kind it is functional, cell-based.
Assay [2] in a line: toxicity to human HepG2 hepatoma cells – cell-based, plate reader, dry powder samples, cytotoxicity control, dose response (AID 1159569).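 Further: inhibitor potency with signal falling toward the positive control level.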 In kind it is functional.
A short description of assay [3]: P. falciparum Dd2 growth inhibitors, dose response, SYBR Green, cherry-picked samples (AID 1159567). In kind it is functional, cell-based.
Assay [4] can be described thus: Dd2 malaria parasite growth inhibition potency – SYBR Green, dry powder samples, dose response (AID 1159566).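 Further: potency for growth inhibition with lower SYBR green DNA signal.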 In kind it is functional, cell-based.
Assay [5] is described as follows: toxicity to human hepatoma HepG2 cells – cell-based, cherry-picked samples, cytotoxicity control, dose response (AID 1159577). In kind it is functional.
Assay [6] can be described thus: growth inhibition of PfATP4-mutant resistant parasites – NITD609-resistant line, SYBR Green, dry powder, dose response (AID 1159571).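 Further: parasites synchronized at ring stage by sorbitol before testing.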 In kind it is functional, cell-based.
Assay [7] deals with Paired box protein Pax-8 (Homo sapiens, UniProt Q06710). The assay is described as follows: PAX8 transcriptional activity inhibition in RMG-I – RMG-I cells, luciferase, cherry-pick, dose response (AID 687027).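 Further: luciferase reporter driven by Pax8 target thyroperoxidase promoter measured by SteadyGlo luminescence.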 In kind it is functional, cell-based.
Sequence of Paired box protein Pax-8 (Q06710 whole entry): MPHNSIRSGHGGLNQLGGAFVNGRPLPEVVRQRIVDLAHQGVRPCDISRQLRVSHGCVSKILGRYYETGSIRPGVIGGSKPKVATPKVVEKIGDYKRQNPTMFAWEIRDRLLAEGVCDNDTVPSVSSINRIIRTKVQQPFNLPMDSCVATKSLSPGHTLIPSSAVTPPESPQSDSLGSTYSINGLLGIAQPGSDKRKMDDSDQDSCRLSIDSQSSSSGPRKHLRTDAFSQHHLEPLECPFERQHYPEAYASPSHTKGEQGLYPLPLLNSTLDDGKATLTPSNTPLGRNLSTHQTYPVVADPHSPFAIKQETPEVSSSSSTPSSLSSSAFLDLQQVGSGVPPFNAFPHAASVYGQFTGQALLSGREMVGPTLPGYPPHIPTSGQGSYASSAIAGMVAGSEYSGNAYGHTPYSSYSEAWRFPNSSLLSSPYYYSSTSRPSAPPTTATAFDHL
A short description of assay [8]: OVCAR-3 cell viability loss – plate reader, dry powder samples, PAX8 inhibitor project, dose response (AID 743044). In kind it is functional, cell-based.
The target in assay [9] is Sphingosine 1-phosphate receptor 2 (Homo sapiens, UniProt O95136). In words: Dose Response Cell Based Assay for Antagonists of the S1P2 Receptor. [Related pubchem assays: 856, 736 ]. In kind it is functional.
Sequence of Sphingosine 1-phosphate receptor 2 (O95136 whole entry): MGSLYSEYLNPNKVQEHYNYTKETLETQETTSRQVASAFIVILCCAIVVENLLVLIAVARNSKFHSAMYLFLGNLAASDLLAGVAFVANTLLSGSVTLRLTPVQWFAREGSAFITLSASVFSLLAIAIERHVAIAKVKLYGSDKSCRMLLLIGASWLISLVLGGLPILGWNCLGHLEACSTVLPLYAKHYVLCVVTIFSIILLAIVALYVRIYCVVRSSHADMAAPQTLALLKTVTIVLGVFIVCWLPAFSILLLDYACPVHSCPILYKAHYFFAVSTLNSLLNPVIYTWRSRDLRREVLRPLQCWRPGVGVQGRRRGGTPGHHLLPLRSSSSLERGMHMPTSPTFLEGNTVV
Assay [10] deals with T1, Protein Tat (Human immunodeficiency virus type 1 group M subtype B (isolate HXB2)(HIV-1), UniProt P04608).
T1 sequence (P04608 whole entry): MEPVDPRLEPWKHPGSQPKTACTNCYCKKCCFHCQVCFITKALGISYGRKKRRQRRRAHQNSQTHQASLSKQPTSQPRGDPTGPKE
In kind it is functional.

Assay [11] can be described thus: viability loss in THP-1 monocytes – THP-1 cells, cytotoxicity control for Vif-APOBEC3G degradation inhibitor project, dose response (AID 1117359). In kind it is functional. To be noted: THP-1.
Assay [12] concerns the target Peroxisome proliferator-activated receptor gamma/Nuclear receptor corepressor 2 (Homo sapiens, UniProt P37231+Q9Y618). The assay is described as follows: Counterscreen for NR2E3 inverse agonists: TR-FRET-based biochemical high throughput dose response assay to identify inverse agonists of the interaction between peroxisome proliferator-activated receptor gamma (PPARg) and nuclear receptor co-repressor 2 (NCOR2). In kind it is functional. A general note: A counterscreen serves to expose hits that act by an unwanted route or on another target.

Assay [13] has as its target Photoreceptor-specific nuclear receptor (Homo sapiens, UniProt Q9Y5X4). In words: ligands suppressing NR2E3 nuclear receptor activity – biochemical, TR-FRET, dose response (AID 463256). In kind it is functional. Background: Time-resolved FRET reads energy transfer from a long-lived donor to a nearby acceptor.
The target of assay [14] is T2, Short transient receptor potential channel 4 (Mus musculus, UniProt Q9QUQ5).
T2 sequence (Q9QUQ5 whole entry): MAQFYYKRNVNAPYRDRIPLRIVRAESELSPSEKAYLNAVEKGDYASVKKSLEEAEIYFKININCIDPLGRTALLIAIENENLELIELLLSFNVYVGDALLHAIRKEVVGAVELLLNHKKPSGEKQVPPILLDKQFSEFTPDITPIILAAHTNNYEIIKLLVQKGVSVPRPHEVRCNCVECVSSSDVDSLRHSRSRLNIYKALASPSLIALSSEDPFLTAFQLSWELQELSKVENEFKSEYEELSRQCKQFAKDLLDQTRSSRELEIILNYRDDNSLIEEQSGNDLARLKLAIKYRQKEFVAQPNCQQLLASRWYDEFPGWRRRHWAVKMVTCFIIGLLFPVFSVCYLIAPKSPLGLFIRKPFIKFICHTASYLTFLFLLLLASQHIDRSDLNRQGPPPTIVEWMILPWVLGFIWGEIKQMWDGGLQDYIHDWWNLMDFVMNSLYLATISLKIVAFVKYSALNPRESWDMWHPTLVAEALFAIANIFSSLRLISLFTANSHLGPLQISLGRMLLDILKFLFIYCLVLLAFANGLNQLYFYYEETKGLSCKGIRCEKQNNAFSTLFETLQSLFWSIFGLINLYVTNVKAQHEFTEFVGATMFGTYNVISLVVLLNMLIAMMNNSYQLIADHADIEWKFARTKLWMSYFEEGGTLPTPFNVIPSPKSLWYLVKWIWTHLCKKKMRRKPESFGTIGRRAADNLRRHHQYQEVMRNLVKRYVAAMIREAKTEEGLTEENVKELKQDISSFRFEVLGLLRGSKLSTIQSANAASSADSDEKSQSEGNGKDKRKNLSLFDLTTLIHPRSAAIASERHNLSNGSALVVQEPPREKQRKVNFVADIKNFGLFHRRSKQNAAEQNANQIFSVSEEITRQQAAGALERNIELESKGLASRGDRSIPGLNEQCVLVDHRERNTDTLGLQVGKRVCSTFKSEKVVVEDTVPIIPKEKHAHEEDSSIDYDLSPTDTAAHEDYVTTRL
In words: block of DAMGO-driven TRPC4 calcium entry – cell-based, HEK293 TRPC4/mu-opioid, Fluo-4 calcium, dose response (AID 434942).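 Further: potency of inhibitors blocking the TRPC4 calcium response.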 In kind it is functional.

In assay [15] the target is T3, DNA repair and recombination protein RAD54-like (Homo sapiens, UniProt Q92698).
T3 sequence (Q92698 whole entry): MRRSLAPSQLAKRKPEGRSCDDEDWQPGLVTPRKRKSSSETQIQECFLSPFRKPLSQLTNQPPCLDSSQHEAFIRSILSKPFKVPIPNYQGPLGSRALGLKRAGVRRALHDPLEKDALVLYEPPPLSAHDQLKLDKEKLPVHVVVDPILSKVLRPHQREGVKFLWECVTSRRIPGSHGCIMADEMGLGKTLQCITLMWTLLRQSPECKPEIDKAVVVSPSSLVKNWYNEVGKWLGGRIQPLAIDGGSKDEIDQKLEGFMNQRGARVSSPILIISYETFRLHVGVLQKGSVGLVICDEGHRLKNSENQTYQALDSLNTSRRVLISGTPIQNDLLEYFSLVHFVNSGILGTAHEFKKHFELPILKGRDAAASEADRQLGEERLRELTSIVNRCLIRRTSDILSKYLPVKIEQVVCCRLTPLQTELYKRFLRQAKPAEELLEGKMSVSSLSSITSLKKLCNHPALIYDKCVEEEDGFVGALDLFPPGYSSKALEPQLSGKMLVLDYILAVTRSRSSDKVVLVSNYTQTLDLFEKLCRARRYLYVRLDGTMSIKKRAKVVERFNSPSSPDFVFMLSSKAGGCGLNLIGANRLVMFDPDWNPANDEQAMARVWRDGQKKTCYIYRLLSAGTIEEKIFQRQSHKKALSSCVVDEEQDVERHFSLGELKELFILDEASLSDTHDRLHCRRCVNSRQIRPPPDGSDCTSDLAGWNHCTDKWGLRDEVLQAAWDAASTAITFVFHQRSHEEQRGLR
The assay is described as follows: RAD54 Holliday junction migration blockers – biochemical, fluorescence, cherry-picked samples, dose series, confirmation (AID 651657). In kind it is functional.

Assay [16] has as its target NAD-dependent protein deacylase sirtuin-5, mitochondrial (Homo sapiens, UniProt Q9NXA8). The assay is described as follows: sirtuin-5 deacylation blockers, concentration series – biochemical, fluorescence imaging, cherry-pick, set 5, dose response (AID 720591).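 Further: desuccinylation of succinyl peptide AMC substrate read as fluorescence after trypsin release; potency of inhibitors that lower fluorescence and may act on trypsin instead.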
Assay [17] can be described thus: M. tuberculosis H37Rv growth inhibitors, H37Rv strain (AID 1626). In kind it is functional.
Assay [18] in a line: microbe, parasite or virus in culture. To be noted: Mycobacterium tuberculosis. In kind it is functional.
Assay [19] addresses Aryl hydrocarbon receptor (Homo sapiens, UniProt P35869). The assay is described as follows: Luminescence-based cell-based high throughput dose response assay for activators of the Aryl Hydrocarbon Receptor (AHR). [Related pubchem assays: 2796 (Primary screen (AHR activators in singlicate)), 2845 (Confirmation screen (AHR activators in triplicate)), 434939 (Counterscreen (PXR activators in triplicate)), 2804 (Summary (AHR activators))]. In kind it is ADME.

Assay [20] is described as follows: cells. In kind it is functional.
The target in assay [21] is Cytochrome P450 2C19 (Homo sapiens, UniProt P33261). In words: qHTS Assay for Inhibitors and Substrates of Cytochrome P450 2C19. [Related pubchem assays: 410 ]. In kind it is ADME. The conditions noted are these: read-out: Potency. Background: Quantitative high-throughput screening tests each substance at several concentrations.
Sequence of Cytochrome P450 2C19 (P33261 whole entry): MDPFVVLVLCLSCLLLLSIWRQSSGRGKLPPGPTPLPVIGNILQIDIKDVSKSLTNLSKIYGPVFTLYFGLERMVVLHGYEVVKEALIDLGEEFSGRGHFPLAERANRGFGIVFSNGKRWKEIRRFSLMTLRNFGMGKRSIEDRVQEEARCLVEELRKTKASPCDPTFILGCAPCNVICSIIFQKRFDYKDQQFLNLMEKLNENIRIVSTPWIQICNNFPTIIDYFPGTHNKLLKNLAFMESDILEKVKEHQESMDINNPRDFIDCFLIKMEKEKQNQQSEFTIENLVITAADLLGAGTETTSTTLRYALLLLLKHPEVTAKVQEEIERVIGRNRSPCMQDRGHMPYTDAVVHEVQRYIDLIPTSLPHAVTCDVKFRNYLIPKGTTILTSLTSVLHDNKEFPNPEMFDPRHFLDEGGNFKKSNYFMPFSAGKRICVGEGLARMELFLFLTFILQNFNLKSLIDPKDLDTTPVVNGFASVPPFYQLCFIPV
The target of assay [22] is Cytochrome P450 3A4 (Homo sapiens, UniProt P08684). The conditions noted are these: Potency.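 Further: confirmatory qHTS run detecting inhibitors and substrates of CYP3A4.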
Sequence of Cytochrome P450 3A4 (P08684 whole entry): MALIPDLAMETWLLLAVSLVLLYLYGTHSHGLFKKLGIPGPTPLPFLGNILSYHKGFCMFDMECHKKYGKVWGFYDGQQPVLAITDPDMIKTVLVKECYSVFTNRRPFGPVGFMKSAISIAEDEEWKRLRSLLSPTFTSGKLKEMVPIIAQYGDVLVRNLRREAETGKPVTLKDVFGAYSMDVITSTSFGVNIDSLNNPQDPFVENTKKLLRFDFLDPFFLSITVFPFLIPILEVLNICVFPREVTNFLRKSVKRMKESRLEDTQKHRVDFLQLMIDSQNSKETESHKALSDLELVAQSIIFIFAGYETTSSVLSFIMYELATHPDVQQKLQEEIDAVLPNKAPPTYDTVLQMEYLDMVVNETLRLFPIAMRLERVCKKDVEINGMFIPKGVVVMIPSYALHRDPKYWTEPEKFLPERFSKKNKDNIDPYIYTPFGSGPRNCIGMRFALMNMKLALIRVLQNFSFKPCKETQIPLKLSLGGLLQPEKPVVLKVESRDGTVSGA
The target in assay [23] is T4, Bcl-2-related protein A1 (Mus musculus, UniProt Q07440).
T4 sequence (Q07440 whole entry): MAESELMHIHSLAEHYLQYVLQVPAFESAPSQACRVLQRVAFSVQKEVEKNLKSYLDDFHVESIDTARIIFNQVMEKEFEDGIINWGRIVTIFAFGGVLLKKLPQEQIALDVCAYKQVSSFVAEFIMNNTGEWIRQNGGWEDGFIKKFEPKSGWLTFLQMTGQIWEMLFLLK
In words: small-molecule antagonists of Bfl-1/BH3 interaction – biochemical, TR-FRET, mouse Bfl-1, confirmation (AID 621).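 Further: TR-FRET binding of GST-Bfl-1 to FITC-labelled Bid peptide via terbium antibody.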

In assay [24] the target is T4, Bcl-2-related protein A1. The assay is described as follows: Bfl-1 binding inhibitors, SAR follow-up, biochemical, fluorescence polarization (AID 1070).
The nature of assay [25]: rise of 2N DNA cells, HeLa – IC50, dose response (AID 1117349). In kind it is functional, cell-based.
Assay [26] can be described thus: IC50 of insulin release inhibition, rat insulinoma INS-1E line, 5 mM glucose, cell-based (AID 1117331). In kind it is functional.
Assay [27] in a line: rise of 4N DNA cells, HeLa – IC50, dose response (AID 1117351). In kind it is functional, cell-based.
Assay [28] is described as follows: Luminescence Cell-Based Dose Response HTS to Identify Activators of Luciferase Translation or Activity in H4 […] Cells. [Related pubchem assays: 1829 (Project Summary), 1814 (Primary HTS)]. In kind it is functional.
Assay [29] has as its system H4. The assay is described as follows: Luminescence Cell-Based Dose Response HTS to Identify Activators of 5'UTR Stem-Loop Driven Prion Protein mRNA Translation in H4 Neuroglioblastoma Cells. [Related pubchem assays: 1829 (Project Summary), 1814 (Primary HTS)]. The conditions noted are these: Homo sapiens. In kind it is functional.

Sequence of Aryl hydrocarbon receptor (P35869 whole entry): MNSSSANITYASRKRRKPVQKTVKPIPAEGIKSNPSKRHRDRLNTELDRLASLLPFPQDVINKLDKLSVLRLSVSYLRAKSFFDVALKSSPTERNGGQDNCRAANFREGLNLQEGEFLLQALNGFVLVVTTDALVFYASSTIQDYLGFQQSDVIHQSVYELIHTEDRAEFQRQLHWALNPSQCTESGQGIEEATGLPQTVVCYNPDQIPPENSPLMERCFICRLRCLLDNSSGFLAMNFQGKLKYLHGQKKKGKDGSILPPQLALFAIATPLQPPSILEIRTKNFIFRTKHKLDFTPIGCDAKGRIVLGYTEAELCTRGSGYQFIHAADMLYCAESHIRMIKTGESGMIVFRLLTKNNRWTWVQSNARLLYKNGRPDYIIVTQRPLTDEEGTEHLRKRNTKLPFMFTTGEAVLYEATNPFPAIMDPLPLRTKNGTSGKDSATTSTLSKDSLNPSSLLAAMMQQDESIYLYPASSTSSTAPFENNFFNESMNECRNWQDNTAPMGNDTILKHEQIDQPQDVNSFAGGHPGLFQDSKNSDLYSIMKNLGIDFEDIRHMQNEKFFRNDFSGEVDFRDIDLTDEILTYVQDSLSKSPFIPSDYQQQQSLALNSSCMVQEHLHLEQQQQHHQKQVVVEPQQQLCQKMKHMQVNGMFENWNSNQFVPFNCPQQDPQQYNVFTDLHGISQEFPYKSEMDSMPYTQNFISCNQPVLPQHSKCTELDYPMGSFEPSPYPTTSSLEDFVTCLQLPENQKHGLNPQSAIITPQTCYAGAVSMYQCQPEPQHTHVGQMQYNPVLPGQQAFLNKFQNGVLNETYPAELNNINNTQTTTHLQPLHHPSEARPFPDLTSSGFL
Sequence of Photoreceptor-specific nuclear receptor (Q9Y5X4 whole entry): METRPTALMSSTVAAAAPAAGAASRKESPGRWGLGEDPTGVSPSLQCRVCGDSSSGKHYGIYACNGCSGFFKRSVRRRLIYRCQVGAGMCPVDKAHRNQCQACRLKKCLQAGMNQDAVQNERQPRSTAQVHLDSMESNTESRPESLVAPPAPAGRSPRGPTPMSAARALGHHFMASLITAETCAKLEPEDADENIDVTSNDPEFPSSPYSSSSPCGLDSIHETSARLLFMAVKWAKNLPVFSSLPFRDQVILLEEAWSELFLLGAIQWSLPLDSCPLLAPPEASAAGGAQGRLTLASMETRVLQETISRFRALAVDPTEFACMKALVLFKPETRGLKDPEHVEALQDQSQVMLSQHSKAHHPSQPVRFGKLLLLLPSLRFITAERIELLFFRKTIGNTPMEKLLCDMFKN
Sequence of NAD-dependent protein deacylase sirtuin-5, mitochondrial (Q9NXA8 whole entry): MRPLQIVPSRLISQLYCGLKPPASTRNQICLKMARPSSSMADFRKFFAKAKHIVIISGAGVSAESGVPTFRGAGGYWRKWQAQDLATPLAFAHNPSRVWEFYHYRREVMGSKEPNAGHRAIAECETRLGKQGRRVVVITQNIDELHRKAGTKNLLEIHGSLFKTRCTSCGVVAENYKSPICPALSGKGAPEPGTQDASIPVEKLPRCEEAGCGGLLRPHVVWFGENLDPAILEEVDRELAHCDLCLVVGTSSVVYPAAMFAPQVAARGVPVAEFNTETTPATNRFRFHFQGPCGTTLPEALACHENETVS

Turning to `COc1cccc(-c2ccc3c(c2)[C@@H]2[C@@H](CCN2C(=O)C2CCCC2)[C@@H](CO)N3)c1`, the AC50 was 2.57 µM (active) in assay [1]; 32.9 µM (active) in assay [2]; 2.25 µM (active) in [3]; 2.12 µM (active) in assay [4]; > 39 µM (inactive) in [5]; 1.65 µM (active) in [6].

In the case of `C[C@H]1CN([C@@H](C)CO)C(=O)Cc2cc(NC(=O)Nc3ccc(F)cc3)ccc2O[C@H]1CN(C)Cc1ccc(Cl)c(Cl)c1`, the results for the AC50 in assay [7] and in [8] were 7.04 µM (active) and 32.5 µM (active), respectively.

As to `NC(=O)c1sc2cc(C(F)(F)F)cnc2c1-c1cccs1`, the IC50 (as a rule, the point on the concentration scale where inhibition reaches its midpoint) in [9] is > 30 µM (not active).

`Cc1nc2cc(NN=C3C(=O)CCCC3=O)ccc2s1`: in [10], the IC50 was > 50 µM (active). Moreover, the CC50 in assay [11] was > 40 µM (active).

For `CS(=O)(=O)N(CC(=O)NC1CCCCC1)Cc1ccc(F)cc1`, the IC50 in assay [12] and in assay [13] was > 39.8 µM (not active) each time.

On to `Cc1ccc(Nc2cc(C)nc3c(C)cccc23)cc1`, for which the EC50 (usually the concentration at which the effect is half-maximal) in assay [14] is 0.531 µM (active). Besides, the AC50 in assay [15] was 34.4 µM (active); in [16], > 30 µM (inactive).

With `O=C(Nc1ccccc1Cl)Oc1ccc2ccccc2c1`, the IC50 in [17] was > 100 µM (active).

Consider `O=[N+]([O-])c1cnc(Nc2ccc(Cl)cn2)c([N+](=O)[O-])c1`, for which the CC50 in [18] was > 40 µM (active). In addition, the EC50 in assay [19] is 1.29 µM (active). Also, the IC50 in [20] is 4.17 µM (active).

As for `N#C[C@@H]1[C@@H](c2ccc(C#Cc3ccc(F)cc3)cc2)[C@H](CO)N1C(=O)C1CCCC1`, the AC50 in assay [1] was 1.82 µM (active); in assay [2], 25.5 µM (active); in [3] it was 2.53 µM (active); in [4] it was 1.52 µM (active); in [6] it was 1.99 µM (active).

Regarding `CCC/C=C/C1C(=O)C2OC2C2(OCC(CC)(CC)CO2)C1CO` (stereo unspecified), the figures for the AC50 in assay [21] and in [22] were 0.004 µM (inconclusive) and 3.98 µM (inconclusive), respectively.

As for `CC1CCC2C(=O)N3C(CCC(C)[C@@H]3c3cccc(N4CCOCC4)c3)C(=O)N2C1c1cccc(Br)c1` (stereo partly specified), the AC50 in assay [21] is 7.94 µM (inconclusive).

Turning to `Clc1ccc(-n2nnc(-c3cc4ccccc4nc3Cl)n2)cc1Cl`, the IC50 in assay [23] and in [24] was > 100 µM (not active) each time.

With `CCN(CC)CCNC(=O)C1C(C)=NC(/C=C2\C(=O)Nc3ccc(F)cc32)=C1C` (stereo unspecified), the IC50 in [25] was > 10 µM (inactive); in [26], > 33.3 µM (inactive); in assay [27], > 10 µM (inactive).

For the compound `O=C(NC1CCCC1)c1cc2c(ccc3ccccc32)o1`, the EC50 in assay [28] is 1.94 µM (active); in assay [29], 24.1 µM (active); in [19], 2.8 µM (active).

The values above are taken from ChEMBL document CHEMBL1201862, “PubChem BioAssay data set” (2004).
